Values joined by “and” are separate entries in the source; they are usually repeats but may differ in a detail not shown here. Equal values may be shown once.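 Cells were grown in 96-well plates and exposed to each compound for 48 hours at five concentrations; endpoints were interpolated linearly between bracketing concentrations, or set to the highest concentration if not reached. Abbreviation: GI50, concentration required for 50% inhibition of growth. TGI is the concentration that stops growth completely.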
Tests used:
Test in all cases: NCI tumour cell line growth inhibition, 48 h
SNB-78 CNS = tested on: SNB-78 CNS
DMS 273 small cell lung = tested on: DMS 273 small cell lung
XF 498 CNS = tested on: XF 498 CNS
RXF-631 renal = tested on: RXF-631 renal
LXFL 529 NSCLC = tested on: LXFL 529 NSCLC
M19-MEL melanoma = tested on: M19-MEL melanoma
KM20L2 colon = tested on: KM20L2 colon
MDA-N = tested on: MDA-N
HOP-18 NSCLC = tested on: HOP-18 NSCLC
P388 leukemia = tested on: P388 leukemia
SN12K1 renal = tested on: SN12K1 renal
P388/ADR leukemia = tested on: P388/ADR leukemia

Structure (SMILES)	TGI (SNB-78 CNS)	TGI (DMS 273 small cell lung)	TGI (XF 498 CNS)	TGI (LXFL 529 NSCLC)	TGI (M19-MEL melanoma)	TGI (KM20L2 colon)	TGI (MDA-N)	TGI (HOP-18 NSCLC)	further results
CC(=O)CCC1(c2ccccc2)OC(=O)C(C#N)=C1c1ccccc1 (centres undefined)	> 100 µM	> 100 µM	> 100 µM	> 100 µM	> 100 µM	> 100 µM	–	–	TGI (RXF-631 renal): > 100 µM
N=C(N)c1ccc2oc3ccc(C(=N)N)cc3c(=O)c2c1	–	–	–	–	–	–	> 100 µM	–	–
COC(=O)CC1(O)C(=O)OCc2c1cc1n(c2=O)Cc2c-1nc1ccccc1c2OC (centres undefined)	> 100 µM	3.35 µM	40 µM	> 100 µM	> 100 µM	> 100 µM	–	> 100 µM	TGI (RXF-631 renal): > 100 µM
CN(C)CCCN1c2ccccc2Sc2ccc(C(F)(F)F)cc21	33.9 µM	29.4 µM	–	> 100 µM	32.3 µM	23.7 µM	26.3 µM	–	–
CC1NOC(=O)C1N=Nc1cccc(Cl)c1 (centres undefined)	> 100 µM	> 100 µM	72 µM	> 100 µM	91.7 µM	> 100 µM	–	> 100 µM	–
Nc1nc(Cl)c2ncn(CCCC(c3ccccc3)P(=O)(O)O)c2n1 (centres undefined)	> 100 µM	> 100 µM	–	> 100 µM	> 100 µM	> 100 µM	–	> 100 µM	–
O=[N+]([O-])c1cccc(/C=N/Nc2ccc3ccccc3n2)c1O	–	–	–	–	–	–	34.3 µM	–	–
O=P(CN1CCOCC1)(c1ccccc1)c1ccccc1	> 100 µM	> 100 µM	> 100 µM	> 100 µM	> 100 µM	–	–	–	TGI (RXF-631 renal): > 100 µM
Cc1c(Cl)ccc2c1NC(=O)C2(O)CC(=O)c1ccc(Cl)cc1 (centres undefined)	> 100 µM	> 100 µM	–	> 53.3 µM	26.9 µM	> 100 µM	–	> 100 µM	TGI (RXF-631 renal): > 100 µM
CCCCCCCCCCCCCCCCCc1nc(Cl)nc(Cl)c1Cl	–	–	–	–	–	–	> 100 µM	–	–
O=C(Nc1ccn(C2CC(O)C(COC(c3ccccc3)(c3ccccc3)c3ccccc3)O2)c(=O)n1)c1ccccc1 (centres undefined)	–	–	–	–	–	–	3.99 µM	–	–
CC1[C@@]2(CCC(C)(C)O2)O[C@@H]2C=C3C4CCC5Cc6nc7c(nc6C[C@@]5(C)C4C[C@H](O)[C@@]3(C)[C@]12O)CC1CCC2C3=C[C@H]4O[C@@]5(O[C@@](C)(CO)C[C@@H]5O)C(C)[C@@]4(O)[C@]3(C)[C@@H](O)CC2[C@]1(C)C7 (some centres undefined)	0.464 µM and 0.312 µM	–	–	0.0824 µM	0.791 µM	0.478 µM and 0.089 µM	–	–	GI50 (SNB-78 CNS): 1.5 nM; GI50 (DMS 273 small cell lung): < 0.365 nM; GI50 (XF 498 CNS): 4.88 nM; TGI (RXF-631 renal): 0.213 µM; TGI (P388 leukemia): 734 nM; TGI (SN12K1 renal): 395 nM; GI50 (M19-MEL melanoma): 336 nM; GI50 (KM20L2 colon): 2.89 nM; TGI (P388/ADR leukemia): 1160 nM
O=C(N/C(=C\c1ccc([N+](=O)[O-])cc1)c1nc2ccccc2s1)c1ccccc1	> 100 µM	> 100 µM	> 100 µM	42.9 µM	53.9 µM	> 100 µM	–	61.9 µM	–
COc1ccc(/C=C/C(=O)c2c(-c3ccccc3)nn(C)c(=O)c2N2CC2C)cc1 (centres undefined)	63.1 µM	68.5 µM	–	93.2 µM	> 100 µM	80 µM	–	> 100 µM	–
CCCCCCCCCCCC/C=C\CC[C@@H](O)[C@H](O)CC[C@H](O)[C@@H]1CC[C@@H](CCCCCCCC2=C[C@H](C)OC2=O)O1	–	–	–	–	–	–	23.4 µM	–	GI50 (MDA-N): 6.76 µM
O=[N+]([O-])c1ccccc1N=Nc1c(O)[nH]c2c(Cl)cccc12	–	–	–	–	–	–	> 100 µM	–	–
N#C/C(=C\c1ccc(O)cc1)C(N)=O	> 100 µM	> 100 µM	> 100 µM	> 100 µM	> 100 µM	> 100 µM	–	–	TGI (RXF-631 renal): > 100 µM; TGI (P388 leukemia): > 100000 nM; TGI (SN12K1 renal): > 100000 nM; TGI (P388/ADR leukemia): > 100000 nM
CC1(C)CC(O)CC(C)(C)N1O	–	–	–	–	–	–	> 100 µM	–	–
COC(=O)C1=NC(=S)NC(c2ccccc2)C1c1nc2ccccc2o1 (centres undefined)	> 50 µM	–	> 50 µM	> 50 µM	> 50 µM	> 50 µM	–	> 50 µM	–
Cc1cc(Cl)ccc1N=C1NC(=O)C(CC(=O)Nc2cccc(Cl)c2)S1 (centres undefined)	> 100 µM	> 100 µM	> 100 µM	> 100 µM	> 100 µM	> 100 µM	–	> 100 µM	–
O=c1cc(-c2ccccc2)oc2ccc(Cl)cc12	> 100 µM	> 100 µM	> 90.5 µM	> 100 µM	> 100 µM	> 100 µM	> 61.1 µM	> 100 µM	–
C=C1C(=O)OC2CC(C)C(/C=C/C(C)=O)=CCC12 (centres undefined)	–	–	–	–	–	–	> 100 µM	–	–

Structure (SMILES)	TGI (SNB-78 CNS)	TGI (DMS 273 small cell lung)	TGI (XF 498 CNS)	TGI (LXFL 529 NSCLC)	TGI (M19-MEL melanoma)	TGI (KM20L2 colon)	TGI (MDA-N)	TGI (HOP-18 NSCLC)	further results
NNc1c(C(N)=O)c2c(N)ncnc2n1C1OC(CO)C(O)C1O (centres undefined)	–	–	–	–	–	–	0.144 µM	–	–
CCCC1C[C@H]2CCCCN2[C@H]2CCCN12 (some centres undefined)	> 100 µM	> 100 µM	> 100 µM	> 100 µM	–	> 100 µM	–	> 100 µM	TGI (RXF-631 renal): > 100 µM
CC(C)(C)N/N=C(/Cc1nc2c3c(ccc2[nH]c1=O)C(=O)c1ccccc1C3=O)C(=O)NC1=C(Cl)C(=O)c2ccccc2C1=O	–	–	–	–	–	–	28.3 µM	–	–
C[N+](C)(C)CC1CCC(C[N+](C)(C)C)C1=NO (centres undefined)	> 100 µM	–	> 100 µM	> 100 µM	> 100 µM	> 100 µM	–	> 100 µM	–
COC(=O)C(=O)C(C(=O)C(=O)Nc1ccc([N+](=O)[O-])cc1)c1nc2ccccc2[nH]c1=O (centres undefined)	–	> 100 µM	> 100 µM	> 100 µM	> 100 µM	> 100 µM	–	> 100 µM	TGI (RXF-631 renal): > 100 µM
CC(C)(O)C1COC2=C1C(=O)c1ccccc1C2=O (centres undefined)	–	–	–	–	–	–	33.3 µM	–	–
Cc1cc(N(CCC#N)CCC#N)ccc1/C=C(\NC(=O)/C=C/c1ccccc1)C(=O)Nc1ccccc1Cl	> 100 µM	> 100 µM	–	> 100 µM	> 100 µM	> 100 µM	–	–	–
Cc1nc2c(C)ccc([N+](=O)[O-])c2c(NCCCN(C)C)c1C	–	–	–	–	–	–	> 100 µM	–	–
C=CCNC(=S)NNC(=O)c1c(C)nc2sccn12	–	> 100 µM	> 100 µM	> 100 µM	> 100 µM	> 100 µM	–	> 100 µM	TGI (RXF-631 renal): > 100 µM
Cc1cc(C)c2nc3c(c(C(O)C4CCCCN4)c2c1)CC/C3=C\c1ccc(Cl)cc1 (centres undefined)	–	–	–	–	–	–	> 100 µM	–	–
COc1cc2c(oc(=O)c3c4occc4cc(OC)c23)c2cccc(O)c12	> 100 µM	> 100 µM	> 100 µM	> 100 µM	> 100 µM	> 100 µM	–	> 100 µM	–
O=C1CCC(c2ccccc2)=NN1c1nc2ccccc2s1	> 100 µM	> 100 µM	86.7 µM	> 100 µM	> 100 µM	–	> 100 µM	> 100 µM	–
COc1ccc(/C=C/C(=N\NC(=O)c2ccccc2)c2sc(Nc3ccc([N+](=O)[O-])cc3)nc2C)cc1OC	61.9 µM	54.6 µM	29.5 µM	24.3 µM	70.6 µM	97.6 µM	–	85 µM	–
CC(C)c1ccc(O)c(Cc2cc(C(C)C)cc(Cc3cc(C(C)C)ccc3O)c2O)c1	4.54 µM	–	2.73 µM	2.81 µM	2.99 µM	5.55 µM	–	–	–
O=S(=O)(c1ccccc1)N1CCCC(c2ccccc2)CC1 (centres undefined)	–	–	–	–	–	–	> 100 µM	–	–
FC(F)(F)c1ccccc1C1SCc2nc3ccccc3n21 (centres undefined)	> 100 µM	> 100 µM	–	> 100 µM	> 100 µM	–	–	> 100 µM	–
CCOc1ccc(NC(=O)CC2SC(=Nc3ccc(C)cc3)NC2=O)cc1 (centres undefined)	> 100 µM	> 100 µM	> 100 µM	> 100 µM	> 100 µM	> 100 µM	–	–	TGI (RXF-631 renal): > 100 µM
COC(=O)[C@@]12OC[C@]34[C@H]([C@@H](O)[C@@H]1O)[C@@]1(C)CC(=O)C(O)=C(C)[C@@H]1C[C@H]3OC(=O)[C@H](OC(=O)/C=C(\C)C(C)C)[C@@H]24	0.00899 µM and 0.0427 µM and 0.0707 µM	0.000177 µM	0.0212 µM	–	–	–	0.0345 µM and 0.0321 µM	0.016 µM and 0.0848 µM	GI50 (SNB-78 CNS): 0.89 nM; TGI (P388 leukemia): 109 nM; TGI (SN12K1 renal): 54.1 nM; TGI (P388/ADR leukemia): 692 nM; GI50 (MDA-N): 0.02 µM; GI50 (HOP-18 NSCLC): 1.61 nM
Cc1cc(NCCCCCCCNc2cc(C)nc3cc(N)ccc23)c2ccc(N)cc2n1	> 100 µM	–	66.2 µM	> 100 µM	> 100 µM	> 100 µM	–	–	–
CCOc1ccc2nc(NC(=O)C(=O)C3C(=O)C(CC4C(=O)c5ccccc5C4=O)C(=O)CC3(C)C)sc2c1 (centres undefined)	–	–	–	–	–	–	> 100 µM	–	–
O=C1/C(=C/c2ccc(Cl)cc2)CCC1CNc1ccc(Cl)cc1 (centres undefined)	> 100 µM	> 39.9 µM	29.5 µM	10.5 µM	> 50.4 µM	12.6 µM	40.4 µM	> 74.5 µM	–
